Laboratory results published in ChEMBL document CHEMBL1146417, “New anti-HIV-1, antimalarial, and antifungal compounds from Terminalia bellerica” (J Nat Prod, 1997).

Key:
[1] = system: Plasmodium falciparum; assay: Antimalarial activity against chloroquine-sensitive Plasmodium falciparum 3D7 by [3H]hypoxanthine incorporation assay; format: functional, organism-based
[2] = system: Candida albicans; assay: Antifungal activity against Candida albicans IMI 349010 on TLC plate by agar overlay method; format: functional
[3] = system: Human immunodeficiency virus 1; assay: Antiviral activity against HIV1 in MT4 cells assessed as reduction of HIV antigen production; format: functional, organism-based; conditions: Human immunodeficiency virus 1, MT4
[4] = system: Penicillium expansum; assay: Antifungal activity against Penicillium expansum IMI 960902 on TLC plate by bioautographic method; format: functional

Molecule | IC50 [1] [µM] | Activity [2] [µg] | EC50 [3] [µM] | Activity [4] [µg]
Oc1ccc2c(c1)O[C@H](c1ccc3c(c1)OCO3)CC2 | > 50 | 6 | 7 | 3
C[C@@H]1[C@H](O)[C@@H](C)/C=C/C=C/C=C/C=C/C=C/C=C/C=C/[C@H](O[C@@H]2O[C@H](C)[C@@H](O)[C@H](N)[C@@H]2O)C[C@@H]2O[C@](O)(C[C@@H](O)C[C@@H](O)[C@H](O)CC[C@@H](O)C[C@@H](O)CC(=O)O[C@H]1C)C[C@H](O)[C@H]2C(=O)O [AMPHOTERICIN B] |  | 1 |  | 
C=C(Cc1ccc(O)cc1)C(=C)Cc1ccc(O)cc1 [ANOLIGNAN B] | 20.5 | >200 | 7 | 5
C=C(Cc1ccc(O)cc1)C(=C)Cc1ccc(OC)cc1O [TERMILIGNAN] | 9.6 | 10 | 7 | 1
C=C(Cc1ccc(O)cc1)C(O)(CO)Cc1ccc(OC)cc1O (stereo not drawn) [THANNILIGNAN] | > 50 | 80 | 7 | 2
NYSTATIN |  |  |  | 0.5
